In US20260325533A1, “CDK INHIBITOR COMPOUNDS” (ALEKSIA THERAPEUTICS, INC., priority 2023, published 2026):
pIC50: −log10 of the molar value. Where two headings read alike, the source gives them in different places.

Experiments:
Format in all cases: biochemical
[1] = target: CDK6/CCND1 (Homo sapiens, UniProt Q00534); experiment: CDK6 homogeneous time-resolved fluorescence (HTRF) kinase assay; conditions: CDK6/CCND
Procedure, shortened: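 1 nM enzyme, 1 mM ATP, 50 nM ULight-4E-BP1 (Thr37/46) peptide, 1% DMSO; 20 min compound preincubation, 60 min reaction, 23 °C. EDTA stop, 2 nM Eu-anti-phospho-4E-BP1 antibody 60 min. TR-FRET 665 nm (or 665/615 ratio); IC50 from 11-point half-log titration, top 10 μM.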

[2] = target: CDK2/CCNE1 (Homo sapiens, UniProt P24941); experiment: CDK2 homogeneous time-resolved fluorescence (HTRF) kinase assay; conditions: CDK2/CCNE
Procedure, shortened: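 3 nM CDK2/CCNE1 was preincubated with compound for 20 min at 23 °C in HEPES buffer (pH not stated), then reacted 60 min with 1 mM ATP and 50 nM ULight-4E-BP1 (Thr37/46) peptide. After EDTA stop, Eu-anti-phospho-4E-BP1 antibody (2 nM) was added for 60 min and TR-FRET read at 665 nm.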

[3] = target: CDK1/CCNB1 (Homo sapiens, UniProt P06493); experiment: CDK1 homogeneous time-resolved fluorescence (HTRF) kinase assay; conditions: CDK1/CCNB
Procedure, shortened: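 High-ATP (1 mM) HTRF assay with 0.5 nM CDK1/cyclin B1 and 50 nM ULight-4E-BP1 (Thr37/46) substrate, 60 min at 23 °C after 20-min compound preincubation. IC50 values come from dose-response curves.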

[4] = target: CDK4/CCND3 (Homo sapiens, UniProt P11802); experiment: CDK4 homogeneous time-resolved fluorescence (HTRF) kinase assay; conditions: CDK4/CCND
Procedure, shortened: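 Inhibition of CDK4/CCND3 (1.5 nM) was measured at high ATP (1 mM) using 50 nM ULight-labelled 4E-BP1 Thr37/46 peptide; detection used 2 nM europium anti-phospho antibody after EDTA quench. IC50 values came from 11-point half-log titrations typically starting at 10 μM.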

[5] = >250 nM, 1 mM ATP, read-out: CDK6/CCND IC50, >250 nM
[6] = 25-250 nM, read-out: CDK2/CCNE IC50, 25-250 nM
[7] = >250 nM, read-out: CDK1/CCNB IC50 >250 nM
[8] = >250 nM, read-out: CDK4/CCND IC50, >250 nM
[9] = 25-250 nM marked x, read-out: CDK6/CCND IC50 25-250 nM
[10] = 25-250 nM marked x, read-out: CDK2/CCNE IC50 25-250 nM
[11] = >250 nM marked x, read-out: CDK1/CCNB IC50 >250 nM
[12] = 25-250 nM marked x, read-out: CDK4/CCND IC50 25-250 nM
[13] = <25 nM, read-out: CDK6/CCND IC50 <25 nM
[14] = <25 nM, read-out: CDK2/CCNE IC50 <25 nM
[15] = 25-250 nM marked x, read-out: CDK1/CCNB IC50 25-250 nM
[16] = <25 nM, read-out: CDK4/CCND IC50 <25 nM
[17] = >250 nM marked x, read-out: CDK6/CCND IC50 >250 nM
[18] = >250 nM marked x, read-out: CDK4/CCND IC50 >250 nM
[19] = x = IC50 >250 nM, read-out: CDK6/CCND IC50 (>250 nM column)
[20] = x = IC50 <25 nM, read-out: CDK2/CCNE IC50 (<25 nM)
[21] = x = IC50 25-250 nM, read-out: CDK1/CCNB IC50 (25-250 nM)
[22] = x = IC50 >250 nM, read-out: CDK4/CCND IC50 (>250 nM column)
[23] = x = IC50 >250 nM, read-out: CDK1/CCNB IC50 (>250 nM column)

Sequence of CDK6/CCND1 (Q00534 whole entry): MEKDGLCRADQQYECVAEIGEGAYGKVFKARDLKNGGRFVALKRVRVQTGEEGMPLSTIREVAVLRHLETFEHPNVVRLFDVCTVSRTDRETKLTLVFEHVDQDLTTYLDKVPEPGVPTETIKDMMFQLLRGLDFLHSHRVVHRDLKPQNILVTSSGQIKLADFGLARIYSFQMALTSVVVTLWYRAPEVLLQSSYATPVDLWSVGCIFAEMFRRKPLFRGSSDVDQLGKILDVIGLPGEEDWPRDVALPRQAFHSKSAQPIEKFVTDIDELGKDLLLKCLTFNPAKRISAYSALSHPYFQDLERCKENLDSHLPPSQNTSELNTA
Sequence of CDK6/CCND1 (P24385 whole entry partner): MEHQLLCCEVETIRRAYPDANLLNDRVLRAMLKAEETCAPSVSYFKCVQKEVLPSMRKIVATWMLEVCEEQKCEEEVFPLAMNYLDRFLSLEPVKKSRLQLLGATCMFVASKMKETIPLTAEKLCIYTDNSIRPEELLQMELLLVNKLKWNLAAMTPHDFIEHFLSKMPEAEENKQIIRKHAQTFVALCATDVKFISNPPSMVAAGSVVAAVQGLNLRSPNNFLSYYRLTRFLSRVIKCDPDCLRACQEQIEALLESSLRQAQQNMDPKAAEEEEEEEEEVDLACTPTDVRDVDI
Sequence of CDK4/CCND3 (P11802 whole entry): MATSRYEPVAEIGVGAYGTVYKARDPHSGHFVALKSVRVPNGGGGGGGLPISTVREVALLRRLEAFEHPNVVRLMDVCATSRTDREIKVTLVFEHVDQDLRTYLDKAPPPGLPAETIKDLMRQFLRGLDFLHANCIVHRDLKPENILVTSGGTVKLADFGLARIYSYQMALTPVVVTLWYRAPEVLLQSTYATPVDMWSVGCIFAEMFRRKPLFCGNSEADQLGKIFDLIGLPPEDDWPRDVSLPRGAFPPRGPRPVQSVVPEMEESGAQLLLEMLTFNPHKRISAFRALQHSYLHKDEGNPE
Sequence of CDK4/CCND3 (P30281 whole entry partner): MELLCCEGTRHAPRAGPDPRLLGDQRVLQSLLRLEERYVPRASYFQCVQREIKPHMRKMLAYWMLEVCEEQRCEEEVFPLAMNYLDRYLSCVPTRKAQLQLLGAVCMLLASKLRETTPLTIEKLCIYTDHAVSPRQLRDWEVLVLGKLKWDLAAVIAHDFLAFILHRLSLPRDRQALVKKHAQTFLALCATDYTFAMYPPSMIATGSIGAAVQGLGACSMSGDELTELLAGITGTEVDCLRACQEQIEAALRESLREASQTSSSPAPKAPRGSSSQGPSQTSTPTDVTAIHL
Sequence of CDK1/CCNB1 (P06493 whole entry): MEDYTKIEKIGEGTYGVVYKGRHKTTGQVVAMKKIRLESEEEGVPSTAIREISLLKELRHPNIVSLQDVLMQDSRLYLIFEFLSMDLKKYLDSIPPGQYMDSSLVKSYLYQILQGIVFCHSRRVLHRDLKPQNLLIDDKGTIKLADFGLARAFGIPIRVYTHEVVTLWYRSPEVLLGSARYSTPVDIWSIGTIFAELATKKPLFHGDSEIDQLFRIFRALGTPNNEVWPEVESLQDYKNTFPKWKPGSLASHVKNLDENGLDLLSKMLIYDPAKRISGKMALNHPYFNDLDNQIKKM
Sequence of CDK1/CCNB1 (P14635 whole entry partner): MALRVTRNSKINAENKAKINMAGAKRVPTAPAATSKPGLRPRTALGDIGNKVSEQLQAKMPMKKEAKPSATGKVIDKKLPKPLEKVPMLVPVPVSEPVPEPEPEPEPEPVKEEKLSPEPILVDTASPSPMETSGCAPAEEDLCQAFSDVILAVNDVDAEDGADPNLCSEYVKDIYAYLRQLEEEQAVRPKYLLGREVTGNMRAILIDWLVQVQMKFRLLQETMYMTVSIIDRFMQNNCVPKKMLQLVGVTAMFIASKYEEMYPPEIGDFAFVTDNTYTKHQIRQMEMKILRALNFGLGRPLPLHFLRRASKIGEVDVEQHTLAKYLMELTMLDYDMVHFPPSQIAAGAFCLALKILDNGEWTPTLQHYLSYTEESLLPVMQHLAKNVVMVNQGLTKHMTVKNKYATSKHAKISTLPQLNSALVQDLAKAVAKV

In the case of `CS(=O)(=O)Nc1ccc(Nc2cc3c(C#Cc4ccc(C#N)cc4)nccc3cn2)cc1` [Ex 940, N-(4-((5-((4-cyanophenyl)ethynyl)-2,6-naphthyridin-3-yl)amino)phenyl)methanesulfonamide], the pIC50 [1, 5] was less than 6.60, the pIC50 [2, 6] was 6.60 to 7.60 and the pIC50 [3, 7] was less than 6.60. The pIC50 [4, 8] was less than 6.60.

`COc1ccc(C#Cc2nccc3cnc(Nc4ccc(S(C)(=O)=O)cc4)cc23)cc1` [Ex 941, 5-((4-methoxyphenyl)ethynyl)-N-(4-(methylsulfonyl)phenyl)-2,6-naphthyridin-3-amine] showed a pIC50 [1, 5] of less than 6.60, a pIC50 [2, 6] of 6.60 to 7.60 and a pIC50 [3, 7] of less than 6.60. The pIC50 [4, 8] was less than 6.60.

`CS(=O)(=O)c1cccc(Nc2cc3c(C#Cc4ccc(C#N)cc4)nccc3cn2)c1` [Ex 942, 4-((7-((3-(methylsulfonyl)phenyl)amino)-2,6-naphthyridin-1-yl)ethynyl)benzonitrile] was tested, and the pIC50 [1, 5] was less than 6.60, the pIC50 [2, 6] was 6.60 to 7.60 and the pIC50 [3, 7] was less than 6.60. For the same compound, the pIC50 [4, 8] was less than 6.60.

`Cn1cc(Nc2cc3c(C#Cc4ccc(C#N)cc4)nccc3cn2)cn1` [Ex 943, 4-((7-((1-methyl-1H-pyrazol-4-yl)amino)-2,6-naphthyridin-1-yl)ethynyl)benzonitrile] was tested, and the pIC50 [1, 5] was less than 6.60, the pIC50 [2, 6] was 6.60 to 7.60 and the pIC50 [3, 7] was less than 6.60. The pIC50 [4, 8] was less than 6.60.

In the case of `CS(=O)(=O)N1CCC(Nc2cc3c(N4CCC(O)CC4)nccc3cn2)CC1` [Example 1, 1-(7-((1-(methylsulfonyl)piperidin-4-yl)amino)-2,6-naphthyridin-1-yl)piperidin-4-ol], the pIC50 [1, 9] was 6.60 to 7.60, the pIC50 [2, 10] was 6.60 to 7.60 and the pIC50 [3, 11] was less than 6.60. The pIC50 [4, 12] was 6.60 to 7.60.

`CS(=O)(=O)N1CCC(Nc2cc3c(N4CCCC4)nccc3cn2)CC1` [Example 2, N-(1-(methylsulfonyl)piperidin-4-yl)-5-(pyrrolidin-1-yl)-2,6-naphthyridin-3-amine] showed a pIC50 [1, 13] greater than 7.60, a pIC50 [2, 10] of 6.60 to 7.60 and a pIC50 [3, 11] of less than 6.60. For the same compound, the pIC50 [4, 12] was 6.60 to 7.60.

`C=CS(=O)(=O)N1CCC(Nc2cc3c(N4CCCCC4)nccc3cn2)CC1` [Example 3, 5-(piperidin-1-yl)-N-(1-(vinylsulfonyl)piperidin-4-yl)-2,6-naphthyridin-3-amine] showed a pIC50 [1, 9] of 6.60 to 7.60, a pIC50 [2, 14] greater than 7.60 and a pIC50 [3, 15] of 6.60 to 7.60. The pIC50 [4, 12] was 6.60 to 7.60.

`CC(C)c1nccc2cnc(NC3CCN(S(C)(=O)=O)CC3)cc12` [Example 6, 5-isopropyl-N-(1-(methylsulfonyl)piperidin-4-yl)-2,6-naphthyridin-3-amine] gave a pIC50 [1, 9] of 6.60 to 7.60, a pIC50 [2, 14] greater than 7.60 and a pIC50 [3, 15] of 6.60 to 7.60. The pIC50 [4, 16] was greater than 7.60.

With `CC#Cc1nccc2cnc(Nc3ccc(S(C)(=O)=O)cc3)cc12` [Example 7, N-(4-(methylsulfonyl)phenyl)-5-(prop-1-yn-1-yl)-2,6-naphthyridin-3-amine] the pIC50 [1, 17] was less than 6.60, the pIC50 [2, 14] was greater than 7.60 and the pIC50 [3, 11] was less than 6.60. The pIC50 [4, 18] was less than 6.60.

Compound `CS(=O)(=O)N1CCC(Nc2cc3c(OCc4ccccc4)nccc3cn2)CC1` [Example 11, 5-(benzyloxy)-N-(1-(methylsulfonyl)piperidin-4-yl)-2,6-naphthyridin-3-amine] has a pIC50 [1, 13] greater than 7.60, a pIC50 [2, 10] of 6.60 to 7.60 and a pIC50 [3, 15] of 6.60 to 7.60. For the same compound, the pIC50 [4, 16] was greater than 7.60.

`C=CS(=O)(=O)c1ccc(Nc2cc3c(N4CCC(C#N)CC4)nccc3cn2)cc1` [Example 15, 1-(7-((4-(vinylsulfonyl)phenyl)amino)-2,6-naphthyridin-1-yl)piperidine-4-carbonitrile] showed a pIC50 [1, 17] of less than 6.60, a pIC50 [2, 10] of 6.60 to 7.60 and a pIC50 [3, 11] of less than 6.60. The pIC50 [4, 18] was less than 6.60.

Work on `CS(=O)(=O)N1CCC(Nc2cc3c(N4CCCCC4)nc(C=O)cc3cn2)CC1` [Example 18, 7-((1-(methylsulfonyl)piperidin-4-yl)amino)-1-(piperidin-1-yl)-2,6-naphthyridine-3-carbaldehyde] yielded a pIC50 [1, 13] greater than 7.60, a pIC50 [2, 14] greater than 7.60 and a pIC50 [3, 15] of 6.60 to 7.60. For the same compound, the pIC50 [4, 16] was greater than 7.60.

With `C=CS(=O)(=O)N1CCC(Nc2cc3c(C4=CCCCC4)nccc3cn2)CC1` [Example 20, 5-(cyclohex-1-en-1-yl)-N-(1-(vinylsulfonyl)piperidin-4-yl)-2,6-naphthyridin-3-amine] the pIC50 [1, 13] was greater than 7.60, the pIC50 [2, 14] was greater than 7.60 and the pIC50 [3, 15] was 6.60 to 7.60. The pIC50 [4, 16] was greater than 7.60.

`CS(=O)(=O)N1CCC(Nc2cc3c(C4CCCCC4)nccc3cn2)CC1` [Example 21, 5-cyclohexyl-N-(1-(methylsulfonyl)piperidin-4-yl)-2,6-naphthyridin-3-amine] was tested, and the pIC50 [1, 13] was greater than 7.60, the pIC50 [2, 14] was greater than 7.60 and the pIC50 [3, 15] was 6.60 to 7.60. For the same compound, the pIC50 [4, 16] was greater than 7.60.

`CS(=O)(=O)N1CCC(Nc2cc3c(C4CCCC4)nccc3cn2)CC1` [Example 22, 5-cyclopentyl-N-(1-(methylsulfonyl)piperidin-4-yl)-2,6-naphthyridin-3-amine] showed a pIC50 [1, 13] greater than 7.60, a pIC50 [2, 14] greater than 7.60 and a pIC50 ([3]; <25 nM, read-out: CDK1/CCNB IC50 <25 nM) greater than 7.60. For the same compound, the pIC50 [4, 16] was greater than 7.60.

`CS(=O)(=O)c1ccc(Nc2cc3c(C4CCCC4)nccc3cn2)cc1` [Example 23, 5-cyclopentyl-N-(4-(methylsulfonyl)phenyl)-2,6-naphthyridin-3-amine] was tested, and the pIC50 [1, 9] was 6.60 to 7.60, the pIC50 [2, 14] was greater than 7.60 and the pIC50 [3, 15] was 6.60 to 7.60. For the same compound, the pIC50 [4, 12] was 6.60 to 7.60.

Compound `C=CS(=O)(=O)N1CCC(Nc2cc3c(-c4cccc(C#N)c4)nccc3cn2)CC1` [Example 24, 3-(7-((1-(vinylsulfonyl)piperidin-4-yl)amino)-2,6-naphthyridin-1-yl)benzonitrile] has a pIC50 [1, 13] greater than 7.60, a pIC50 [2, 14] greater than 7.60 and a pIC50 [3, 11] of less than 6.60. The pIC50 [4, 12] was 6.60 to 7.60.

In the case of `COCC1(COC)C(=O)Nc2cc(C#Cc3nccc4cnc(Nc5ccc(S(C)(=O)=O)cc5)cc34)ccc21` [Example 360, 3,3-bis(methoxymethyl)-6-((7-((4-(methylsulfonyl)phenyl)amino)-2,6-naphthyridin-1-yl)ethynyl)indolin-2-one], the pIC50 [1, 19] was less than 6.60, the pIC50 [2, 20] was greater than 7.60 and the pIC50 [3, 21] was 6.60 to 7.60. The pIC50 [4, 22] was less than 6.60.

Compound `CC1(C)C(=O)Nc2nc(C#Cc3nccc4cnc(Nc5ccc(S(C)(=O)=O)cc5)cc34)ccc21` [Example 374, 3,3-dimethyl-6-((7-((4-(methylsulfonyl)phenyl)amino)-2,6-naphthyridin-1-yl)ethynyl)-1,3-dihydro-2H-pyrrolo[2,3-b]pyridin-2-one] has a pIC50 [1, 19] of less than 6.60, a pIC50 [2, 20] greater than 7.60 and a pIC50 [3, 21] of 6.60 to 7.60. The pIC50 [4, 22] was less than 6.60.

`CS(=O)(=O)c1ccc(Nc2cc3c(C#Cc4cc5c(cc4F)C4(CC4)C(=O)N5)nccc3cn2)cc1` [Example 378, 5′-fluoro-6′-((7-((4-(methylsulfonyl)phenyl)amino)-2,6-naphthyridin-1-yl)ethynyl)spiro[cyclopropane-1,3′-indolin]-2′-one] showed a pIC50 [1, 19] of less than 6.60, a pIC50 [2, 20] greater than 7.60 and a pIC50 [3, 23] of less than 6.60. It also gave a pIC50 [4, 22] of less than 6.60.

`CCC1(CC)C(=O)Nc2cc(C#Cc3nccc4cnc(Nc5ccc(S(C)(=O)=O)cc5C)cc34)ccc21` [Example 395, 3,3-diethyl-6-((7-((2-methyl-4-(methylsulfonyl)phenyl)amino)-2,6-naphthyridin-1-yl)ethynyl)indolin-2-one] was tested, and the pIC50 [1, 19] was less than 6.60, the pIC50 [2, 20] was greater than 7.60 and the pIC50 [3, 23] was less than 6.60. For the same compound, the pIC50 [4, 22] was less than 6.60.

`Nc1ncccc1C#Cc1nccc2cnc(Nc3ccc(S(=O)(=O)C4CCC4)cc3)cc12` [Example 398, 5-((2-aminopyridin-3-yl)ethynyl)-N-(4-(cyclobutylsulfonyl)phenyl)-2,6-naphthyridin-3-amine] was tested, and the pIC50 [1, 19] was less than 6.60, the pIC50 ([2]; x = IC50 25-250 nM, read-out: CDK2/CCNE IC50 (25-250 nM)) was 6.60 to 7.60 and the pIC50 [3, 23] was less than 6.60. For the same compound, the pIC50 [4, 22] was less than 6.60.
